# Assay results as given in patent publication US12642788B2, “Pharmaceutical composition comprising benzimidazole derivative compound” (HK INNO.N CORPORATION, priority 2020, dated 2026).
# What was measured:
# Type in all cases: in vivo, C57BL/6 male mice
# [1] = system: tight junction (intestinal permeability); experiment: FITC-dextran permeability, DSS model; settings: FITC value in serum 4 hours after oral FITC-dextran
# Experimental: Four hours before the mouse was sacrificed in the mouse model of colitis using DSS, the mouse was orally dosed with FITC-dextran (80 mg/mL), after which cardiac puncture was performed to measure an FITC value in serum. Permeability (%) was converted based on the normal control group.
# colonic tissues [2] = experiment: PAS staining analysis and damage to colonic tissues, DNBS model
# Experimental: (§1) PAS staining analysis was performed on colonic tissues obtained from each of the animal models in which DSS and DNBS had been used, the goblet cell loss was scored according to the following table 2, and the degree of tissue damage was scored according to the following table 3. [table] [table]
# KCNJ1 mRNA = KCNJ1 mRNA expression in colonic tissues, real-time PCR, DSS model; settings: 30 mg/kg/day oral
# Experimental: In the mouse model of colitis using DSS, the difference in expression of KCNJ1 mRNA was measured by using a real-time PCR. (In FIG. 4, ** indicates P<0.01.)
# IL-17 = IL-17 mRNA expression in colonic tissues, real-time PCR, DNBS model; settings: compared to the group with induced colitis
# Experimental: In the mouse model of colitis using DNBS, the level of mRNA expression of IL-17 was evaluated by using a real-time PCR. (In FIG. 12, ** indicates P<0.01 and *** indicates P<0.001.)
# TNF-α [3] = experiment: TNF-α mRNA expression in colonic tissues, DNBS model; settings: compared to the group with induced colitis
# [4] = system: colitis induced by 2,4-dinitrobenzenesulfonic acid hydrate (DNBS); experiment: Mouse model of colitis using DNBS (body weight, length of large intestine, DAI, survival rate); settings: for body weight: day 0 = 100%; for survival rate: as of day 5
# Experimental: Mouse Model of Colitis Using DNBS
# C57BL/6 male mice, which were eight weeks old (24.0 g), were purchased from Orient Bio, acclimated to the laboratory environment (temperature of 21±2° C. and humidity of 50±10%) for one week with a full access to feed and water, and used in an experiment.
# The mice were divided into a normal control group (Control, n=6), a group with induced colitis (DNBS+Vehicle, n=8), a group dosed with tegoprazan (DNBS+Tegoprazan, n=8), and a group dosed with a control drug (DNBS+Rabeprazole, n=8), and the experiment was performed.
# To induce colitis, DNBS (Sigma-Aldrich product, catalog No. 556971) was used. The mice were fasted from one day before being dosed with DNBS to remove the fecal waste in the intestine. The normal control group was dosed with 50% ethanol only by rectal route.
# The administration of DNBS was done by dissolving 5 mg of DNBS in 50% ethanol and administering it by rectal route.
# In the group dosed with tegoprazan (DNBS+Tegoprazan), the DNBS-administered mouse was orally dosed with tegoprazan (7-{[(4S)-5,7-Difluoro-3,4-dihydro-2H-chromen-4-yl]oxy}-N,N,2-trimethyl-1H-benzi midazole-5-carboxamide), which had been dissolved in 0.5% (w/v) methylcellulose aqueous solution, at a dose of 30 mg/kg/day twice a day for five days.
# In the group dosed with the control drug (DNBS+Rabeprazole), the DNBS-administered mouse was dosed with rabeprazole in substantially the same manner as the group dosed with tegoprazan, except for using rabeprazole instead of tegoprazan.
# In the group with induced colitis (DNBS+Vehicle), the DNBS-administered mouse was orally dosed with 0.5% (w/v) methylcellulose aqueous solution twice a day.
# In the group dosed with tegoprazan, the group dosed with the control drug, and the group with induced colitis, the oral administration was performed twice a day by dividing the administration into morning/afternoon. After being dosed for four days, the mouse was sacrificed on the 5th day.
# The body weight of each mouse in the normal control group, the group with induced colitis, the group dosed with tegoprazan, and the group dosed with the control drug was measured. The body weight of the mouse was measured every morning from the start day of experiment before administration of DNBS (day 0) to the 5th day, and the body weight of the mouse before administration of DNBS on day 0 was converted into 100%. In the case of the mouse sacrificed before the end of experiment, the weight of the mouse measured the day before sacrifice was included in the data as of the last day of experiment and converted (refer to FIG. 15 for survival period and survival rate).
# On the 5th day after an initial administration of DNBS, the mouse was sacrificed, and the colon was removed therefrom to measure the length of the removed large intestine. (In FIG. 10, * indicates P<0.05.)
# As DAI, a change in body weight, bloody stool and stool viscosity were measured every morning, and scored according to the following table 1.
# (In relation to the animal model of colitis using DNBS, in the case of the mouse sacrificed before the end of experiment, the DAI score of the mouse measured the day before sacrifice was included in the data as of the last day of experiment and converted (refer to FIG. 15 for survival period and survival rate).)
# IL-6 [5] = experiment: IL-6 mRNA expression in colonic tissues, real-time PCR, DSS model; settings: compared to the group with induced colitis
# Experimental: (§2) In the mouse model of colitis using DSS, the level of mRNA expression of IL-1p, IL-6, Muc 2 and TNF-α was evaluated by using a real-time PCR. (In FIG. 5, * indicates P<0.05, ** indicates P<0.01, and *** indicates P<0.001.)
# IL-6 [6] = experiment: IL-6 mRNA expression in colonic tissues, DNBS model; settings: compared to the group with induced colitis
# [7] = system: colitis induced by dextran sodium sulfate (DSS); experiment: Mouse model of colitis using DSS (body weight, length of large intestine, DAI); settings: 30 mg/kg/day oral twice a day; for decrease in body weight: vs day 0 = 100%
# Experimental: Mouse Model of Colitis Using DSS C57BL/6 male mice, which were eight weeks old (24.0 g), were purchased from Orient Bio, acclimated to the laboratory environment (temperature of 21±2° C. and humidity of 50±10%) for one week with a full access to feed and water, and used in an experiment. The mice were divided into a normal control group (Control, n=6), a group with induced colitis (DSS+Veh, n=8), a group dosed with tegoprazan (DSS+Tegoprazan, n=8), and a group dosed with a control drug (DSS+Rabeprazole, n=8), and the experiment was performed. To induce colitis, DSS (MPbio product, catalog No. 0216011080) was used. The group with induced colitis (DSS+Veh) was dosed with 2.0% DSS in drinking water for consecutive five days, was suspended from 2.0% DSS administration from the 5th day, and was orally dosed with 0.5% (w/v) methylcellulose aqueous solution twice a day for three days until the 8th day. The group dosed with tegoprazan (DSS+Tegoprazan) was orally dosed with tegoprazan (7-{[(4S)-5,7-difluoro-3,4-dihydro-2H-chromen-4-yl]oxy}-N,N,2-trimethyl-1H-benzi midazole-5-carboxamide), which was dissolved in 0.5% (w/v) methylcellulose aqueous solution, at a dose of 30 mg/kg/day twice a day for five days along with 2% DSS and drinking water. The group was suspended from 2.0% DSS administration from the 5th day, and was orally dosed with tegoprazan, which was dissolved in 0.5% (w/v) methylcellulose aqueous solution, twice a day for three days until the 8th day. The group dosed with the control drug (DSS+Rabeprazole) was dosed with DSS and rabeprazole in substantially the same manner as the group dosed with tegoprazan, except for using rabeprazole instead of tegoprazan. In the group dosed with tegoprazan and the group dosed with the control drug, the oral administration was performed twice a day by dividing the administration into morning/afternoon. The body weight of each mouse was measured with regard to the normal control group, the group with induced colitis, the group dosed with tegoprazan, and the group dosed with the control drug. The body weight of the mouse was measured every morning from the start day of experiment (day 0), in which DSS was not administered, until the 9th day, and the body weight of the mouse, which was measured on the start day of experiment (day 0) without the administration of DSS, was converted into 100%. On the 9th day after an initial administration of 2% DSS solution, the mouse was sacrificed and the colon was removed therefrom to measure the length of the removed large intestine. (In FIG. 2, * indicates P<0.05 and ** indicates P<0.01.) As DAI, a change in body weight, bloody stool and stool viscosity were measured every morning, and scored according to the following table 1.
# colonic tissues [8] = experiment: PAS staining analysis and damage to colonic tissues, DSS model; settings: for scored degree of damage to colonic tissues: score per Table 3
# Experimental: as §1
# IL-1β = IL-1β production/expression in colonic tissues, DSS model
# Experimental: as §2
# Muc2 = Muc2 mRNA expression in colonic tissues, real-time PCR, DSS model
# Experimental: as §2
# TNF-α [9] = experiment: TNF-α mRNA expression in colonic tissues, real-time PCR, DSS model; settings: compared to the group with induced colitis
# Experimental: as §2
# [10] = 5th day, 30 mg/kg/day oral twice a day
structure (smiles),measurement,setting,value
"Cc1nc2cc(C(=O)N(C)C)cc(O[C@H]3CCOc4cc(F)cc(F)c43)c2[nH]1 [tegoprazan, (S)-4-(5,7-difluorochroman-4-yloxy)-N,N,2-trimethyl-1H-benzo[d]imidazole-6-carbox amide]",damage to the tight junction (FITC-dextran permeability),[1],significant decrease in the damage to the tight junction
same,crypt damage (PAS staining),colonic tissues [2]; colonic tissues,partially intact crypt was observed
same,goblet cells (PAS staining),colonic tissues [2]; colonic tissues,presence of mucin-producing goblet cells was confirmed
same,expression of KCNJ1 mRNA,KCNJ1 mRNA,significant decrease in expression of KCNJ1 mRNA
same,mRNA expression of IL-17,IL-17,significant decrease
same,mRNA expression of TNF-α,TNF-α [3],tended to decrease
same,length of the large intestine,[4]; [10],no difference in the length of the large intestine from the normal control group
same,body weight,[4]; [10],about 105%
same,survival rate,[4],all the subjects in the group dosed with tegoprazan survived until the last day of experiment
same,disease activity index (DAI) score,"[4]; to 5th day, 30 mg/kg/day oral twice a day",DAI drastically decreased from the 4th day
same,mRNA expression of IL-6,IL-6 [5],statistically significant decrease
same,mRNA expression of IL-6,IL-6 [6],tended to decrease
same,length of the large intestine,[7]; 9th day,a rather increase in the length of the large intestine or no difference from the normal control group
same,decrease in body weight,[7]; 9th day,about 14%
same,disease activity index (DAI) score,[7]; to 9th day,took a turn for the better compared to the group with induced colitis
same,crypt damage (PAS staining),colonic tissues [8]; colonic tissues,partially intact crypt was observed
same,goblet cells (PAS staining),colonic tissues [8]; colonic tissues,goblet cells were also present compared to the group with induced colitis
same,scored degree of damage to colonic tissues,colonic tissues [8],5.38±1.8 point
same,production/expression of IL-1β,IL-1β,inhibits the production/expression
same,mRNA expression of Muc2,Muc2,statistically significant increase
same,mRNA expression of TNF-α,TNF-α [9],statistically significant decrease
"COCCCOc1ccnc(C[S+]([O-])c2nc3ccccc3[nH]2)c1C (centres unmarked) [control drug, rabeprazole, reference compound]",scored degree of damage to colonic tissues,colonic tissues [2]; score per Table 3,7.0±1.4 point
same,body weight,[4]; [10],89%
same,survival rate,[4],75%
same,decrease in body weight,[7]; 9th day,about 23%
same,scored degree of damage to colonic tissues,colonic tissues [8],8.12±1.8 point
